pIC50: −log10 of the molar value. Where two headings read alike, the source gives them in different places.

The target in assay [1] is Cathepsin D (Cat D) (Homo sapiens (Human), UniProt P07339). The assay can be described thus: In vitro enzymatic Cathepsin D (Cat D) FRET assay. Type of assay: biochemical. The settings on record: read-out: CatD IC50. In a few lines:
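CHO-expressed recombinant Cat D cleaves a fluorophore/quencher FRET peptide (20 nM) in 0.05 M citrate pH 3.5, 5 mM CHAPS, 10% DMSO final, over 1 h. Tris addition neutralizes pH to stop the reaction; fluorescence read at excitation 500 nm, emission 580 nm.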

The test system of assay [2] is Aβ40 in conditioned medium of cells stably expressing Amyloid Precursor Protein (APP). In words: In vitro BACE cell-based assay (Aβ40 sandwich ELISA). Particulars: Homo sapiens. How it is done: In Vitro BACE Cell-Based Assay
The cell-based assay measures inhibition or reduction of Aβ40 in conditioned medium of test compound treated cells expressing amyloid precursor protein.
Cells stably expressing Amyloid Precursor Protein (APP) were plated at a density of 40K cells/well in 96 well plates (Costar). The cells were cultivated for 24 hours at 37° C. and 5% CO2 in DMEM supplemented with 10% FBS. The test compounds were then added to cells in 10-point dose response concentrations with the starting concentration being either 100 μM or 10 μM. The compounds were diluted from stock solutions in DMSO and the final DMSO concentration of the test compounds on cells was 0.1%. After 24 h of incubation with the test compounds the supernatant conditioned media was collected and the Aβ 40 levels were determined using a sandwich ELISA. The IC50 of the compound was calculated from the percent of control or percent inhibition of Aβ 40 as a function of the concentration of the test compound.
The sandwich ELISA to detect Aβ 40 was performed in 96 well microtiter plates, which were pre-treated with goat anti-rabbit IgG (Pierce). The capture and detecting antibody pair that were used to detect Aβ 40 from cell supernatants were affinity purified pAb40 (Biosource) and biotinylated 6E10 (Signet Labs Inc.), respectively. The optimal concentration for the pAb40 antibody was 3 μg/ml in Superblock/TBS (Pierce) that was supplemented with 0.05% Tween 20 (Sigma).
Cellular supernatants were incubated with the capture antibody for 3 h at 4° C., followed by 3 wash steps in TBS-tween (0.05%). The detecting antibody incubation was for 2 h at 4° C., again followed by the wash steps as described previously. The final readout of the ELISA is Time-Resolved Fluorescence (counts per minute) using Delfia reagents Streptavidin-Europium and Enhancement solutions (Perkin Elmer) and the Victor 2 multilabel counter (Perkin Elmer).
Background: An ELISA detects its analyte on a solid surface through an enzyme-linked reagent.

Assay [3] addresses Beta Secretase enzyme (BACE) (Homo sapiens (Human), UniProt P56817). The assay can be described thus: In vitro enzymatic BACE FRET assay. It counts as biochemical. The settings on record: read-out: BACE 1 FRET assay IC50. How it is done:
In Vitro Enzymatic BACE FRET (Fluorescence Resonance Energy Transfer) Assay (Enzyme Assay Data in the Example Table I)
The assay buffer used in this screen is 0.05 M acetate, pH 4.2, 10% DMSO final, 100 uM genapol (which is a nonionic detergent, below its Critical Micelle Concentration). […] This assay is effectively started by the addition of FRET substrate (50 nM) and the combination is incubated for one hour. The FRET assay is terminated with by addition of Tris buffer, which raises the pH to neutrality, and the fluorescence is determined. The FRET substrate is a peptide with commercially available fluorophore and quencher, on opposite sides of the BACE cleavage site.

The mark [4] stands for this setting: average IC50, cathepsin D enzyme assay.
Setting [5] is: HEK293, average IC50, HEK cell assay, read-out: HEK cell assay IC50.
[6] abbreviates: average IC50, BACE enzyme assay.
Setting [7] is: HEK293, average IC50, HEK cells, read-out: HEK cell assay IC50.

Cathepsin D (Cat D), sequence (P07339 65-412, species assumed): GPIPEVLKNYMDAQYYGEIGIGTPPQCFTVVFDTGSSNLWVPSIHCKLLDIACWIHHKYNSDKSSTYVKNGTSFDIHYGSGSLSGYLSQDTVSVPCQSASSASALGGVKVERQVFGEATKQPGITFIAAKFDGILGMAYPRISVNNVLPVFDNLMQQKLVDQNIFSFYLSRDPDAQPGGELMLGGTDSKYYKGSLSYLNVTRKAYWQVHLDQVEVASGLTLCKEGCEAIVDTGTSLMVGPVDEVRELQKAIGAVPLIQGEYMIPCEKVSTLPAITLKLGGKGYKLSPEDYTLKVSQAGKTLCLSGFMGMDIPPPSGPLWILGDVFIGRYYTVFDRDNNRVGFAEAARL
Beta Secretase enzyme (BACE), sequence (P56817 46-501): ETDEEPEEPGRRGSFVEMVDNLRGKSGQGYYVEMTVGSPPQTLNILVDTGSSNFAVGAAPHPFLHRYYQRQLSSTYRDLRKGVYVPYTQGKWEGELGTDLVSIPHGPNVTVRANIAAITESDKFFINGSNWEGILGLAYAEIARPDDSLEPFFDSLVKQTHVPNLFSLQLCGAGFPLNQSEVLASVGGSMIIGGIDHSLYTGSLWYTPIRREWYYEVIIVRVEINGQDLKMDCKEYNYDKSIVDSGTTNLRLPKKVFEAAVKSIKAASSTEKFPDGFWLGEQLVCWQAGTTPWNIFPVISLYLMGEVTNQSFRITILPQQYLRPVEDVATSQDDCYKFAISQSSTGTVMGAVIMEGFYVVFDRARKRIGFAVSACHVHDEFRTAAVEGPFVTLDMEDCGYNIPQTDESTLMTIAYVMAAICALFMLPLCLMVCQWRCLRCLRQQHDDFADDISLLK

In general, pIC50 refers to the negative decadic logarithm of the IC50, by convention in mol/L. `C[C@@]1(c2cc(Nc3nc4cc(Cl)ccc4o3)ccc2F)C[C@@H](C(F)(F)F)OC(N)=N1` [Example 30, N-(3-((4S,6S)-2-amino-4-methyl-6-(trifluoromethyl)-5,6-dihydro-4H-1,3-oxazin-4-yl)-4-fluorophenyl)-5-chlorobenzo[d]oxazol-2-amine]: the pIC50 is 3.79 in assay [1] (setting [4]), 5.54 in assay [2] (setting [5]) and 4.57 in assay [3] (setting [6]).

As for `NC1=N[C@](CF)(c2cc(NC(=O)c3ncc(Cl)cc3F)ccc2F)C[C@@H](C(F)(F)F)O1` [Example 34, N-(3-((4S,6S)-2-amino-4-(fluoromethyl)-6-(trifluoromethyl)-5,6-dihydro-4H-1,3-oxazin-4-yl)-4-fluorophenyl)-5-chloro-3-fluoropicolinamide], the figures for the pIC50 in assay [1] (setting [4]), in assay [2] (setting [5]) and in assay [3] (setting [6]) were under 3.40, 7.38 and 7.29, respectively.

`CC#CCOc1cnc(C(=O)Nc2ccc(F)c([C@]3(CF)C[C@@H](C(F)(F)F)OC(N)=N3)c2)cn1` [Example 39, N-(3-((4S,6S)-2-amino-4-(fluoromethyl)-6-(trifluoromethyl)-5,6-dihydro-4H-1,3-oxazin-4-yl)-4-fluorophenyl)-5-(but-2-yn-1-yloxy)pyrazine-2-carboxamide]: the pIC50 in assay [1] (setting [4]) is under 3.40; in assay [2] (setting [5]) it was 8.49; in assay [3] (setting [6]) it was 9.15.

Consider `NC1=N[C@](CF)(c2cc(NC(=O)c3ncc(C(F)F)cc3Cl)ccc2F)C[C@@H](C(F)(F)F)O1` [Example 40, N-(3-((4S,6S)-2-amino-4-(fluoromethyl)-6-(trifluoromethyl)-5,6-dihydro-4H-1,3-oxazin-4-yl)-4-fluorophenyl)-3-chloro-5-(difluoromethyl)picolinamide], for which the pIC50 in assay [1] (setting [4]) is under 3.40; in assay [2] (setting [5]), 6.98; in assay [3] (setting [6]) it was 6.89.

As to `NC1=N[C@](CF)(c2cc(NC(=O)c3ccc(C(F)F)cn3)ccc2F)C[C@@H](C(F)(F)F)O1` [Example 41, N-(3-((4S,6S)-2-amino-4-(fluoromethyl)-6-(trifluoromethyl)-5,6-dihydro-4H-1,3-oxazin-4-yl)-4-fluorophenyl)-5-(difluoromethyl)picolinamide], the pIC50 in assay [1] (setting [4]) was under 3.40; in assay [2] (setting [5]) it was 7.06; in assay [3] (setting [6]), 7.14.

On to `Cc1cc(OC(F)F)cnc1C(=O)Nc1ccc(F)c([C@]2(CF)C[C@@H](C(F)(F)F)OC(N)=N2)c1` [Example 42, N-(3-((4S,6S)-2-amino-4-(fluoromethyl)-6-(trifluoromethyl)-5,6-dihydro-4H-1,3-oxazin-4-yl)-4-fluorophenyl)-5-(difluoromethoxy)-3-methylpicolinamide], for which the pIC50 in assay [1] (setting [4]) is under 3.40; in assay [2] (setting [5]), 7.29; in assay [3] (setting [6]) it was 7.59.

In the case of `COc1cc(Cl)cnc1C(=O)Nc1ccc(F)c([C@]2(CF)C[C@@H](C(F)(F)F)OC(N)=N2)c1` [Example 47], the figures for the pIC50 in assay [1] (average IC50), in assay [2] (setting [7]) and in assay [3] (average IC50) were under 3.40, 7.17 and 7.25, respectively.

Turning to `COc1cc(C#N)cnc1C(=O)Nc1ccc(F)c([C@]2(CF)C[C@@H](C(F)(F)F)OC(N)=N2)c1` [Example 48, N-(3-((4S,6S)-2-amino-4-(fluoromethyl)-6-(trifluoromethyl)-5,6-dihydro-4H-1,3-oxazin-4-yl)-4-fluorophenyl)-5-cyano-3-methoxypicolinamide], the figures for the pIC50 in assay [1] (average IC50), in assay [2] (setting [7]) and in assay [3] (average IC50) were under 3.40, 7.49 and 7.38, respectively.

As for `NC1=N[C@](CF)(c2cc(NC(=O)c3ccc(C#CC4CC4)cn3)ccc2F)C[C@@H](C(F)(F)F)O1` [Example 53, N-(3-((4S,6S)-2-amino-4-(fluoromethyl)-6-(trifluoromethyl)-5,6-dihydro-4H-1,3-oxazin-4-yl)-4-fluorophenyl)-5-(cyclopropylethynyl)picolinamid], the pIC50 is 2.52 in assay [1] (setting [4]), 6.71 in assay [2] (setting [5]) and 7.64 in assay [3] (setting [6]).

As to `NC1=N[C@](CF)(c2cc(Nc3ncc(F)c4cc(C#CC5CC5)cnc34)ccc2F)C[C@@H](C(F)(F)F)O1` [Example 54, (4S,6S)-4-(5-((3-(cyclopropylethynyl)-5-fluoro-1,7-naphthyridin-8-yl)amino)-2-fluorophenyl)-4-(fluoromethyl)-6-(trifluoromethyl)-5,6-dihydro-4H-1,3-oxazin-2-amine], the pIC50 in assay [1] (setting [4]) is under 3.88; in assay [2] (setting [5]) it was 5.63; in assay [3] (setting [6]), 7.48.

In the case of `NC1=N[C@](CF)(c2cc(Nc3nccc4cc(C#CC5CC5)cnc34)ccc2F)C[C@@H](C(F)(F)F)O1` [Example 55, (4S,6S)-4-(5-((3-(cyclopropylethynyl)-1,7-naphthyridin-8-yl)amino)-2-fluorophenyl)-4-(fluoromethyl)-6-(trifluoromethyl)-5,6-dihydro-4H-1,3-oxazin-2-amine], the pIC50 in assay [1] (setting [4]) is under 3.40; in assay [2] (setting [5]), 5.99; in assay [3] (setting [6]), 7.01.

Turning to `NC1=N[C@](CF)(c2cc(NC(=O)c3ccc(F)cn3)ccc2F)C[C@@H](C(F)(F)F)O1` [Example 57, N-(3-((4S,6S)-2-amino-4-(fluoromethyl)-6-(trifluoromethyl)-5,6-dihydro-4H-1,3-oxazin-4-yl)-4-fluorophenyl)-5-fluoropicolinamide], the pIC50 in assay [1] (average IC50) was 2.39; in assay [2] (setting [7]), 6.97; in assay [3] (average IC50), 7.14.

As for `Cc1cc(Cl)cnc1C(=O)Nc1cnc(F)c([C@]2(C)C[C@@H](C(F)(F)F)OC(N)=N2)c1` [Example 61, N-(5-((4S,6S)-2-amino-4-methyl-6-(trifluoromethyl)-5,6-dihydro-4H-1,3-oxazin-4-yl)-6-fluoropyridin-3-yl)-5-chloro-3-methylpicolinamide], the pIC50 is under 3.40 in assay [1] (average IC50), 7.41 in assay [2] (setting [7]) and 7.26 in assay [3] (average IC50).

Take `C[C@@]1(c2cc(NC(=O)c3ccc(F)cn3)cnc2F)C[C@@H](C(F)(F)F)OC(N)=N1` [Example 64, N-(5-((4S,6S)-2-amino-4-methyl-6-(trifluoromethyl)-5,6-dihydro-4H-1,3-oxazin-4-yl)-6-fluoropyridin-3-yl)-5-fluoropicolinamide]: the pIC50 was under 3.40 in assay [1] (setting [4]), 7.42 in assay [2] (setting [5]) and 6.69 in assay [3] (setting [6]).

Consider `C[C@@]1(c2cc(NC(=O)c3ccc(OCC(F)(F)F)cn3)cnc2F)C[C@@H](C(F)(F)F)OC(N)=N1` [Example 65, N-(5-((4S,6S)-2-amino-4-methyl-6-(trifluoromethyl)-5,6-dihydro-4H-1,3-oxazin-4-yl)-6-fluoropyridin-3-yl)-5-(2,2,2-trifluoroethoxy)picolinamide], for which the values for the pIC50 in assay [1] (setting [4]), in assay [2] (setting [5]) and in assay [3] (setting [6]) were 3.82, 6.91 and 7.10, respectively.

With `C[C@@]1(c2cc(NC(=O)c3ncc(C#N)cc3Cl)cnc2F)C[C@@H](C(F)(F)F)OC(N)=N1` [Example 66, N-(5-((4S,6S)-2-amino-4-methyl-6-(trifluoromethyl)-5,6-dihydro-4H-1,3-oxazin-4-yl)-6-fluoropyridin-3-yl)-3-chloro-5-cyanopicolinamide], the pIC50 in assay [1] (average IC50) is under 3.40; in assay [2] (HEK293, read-out: HEK cell assay IC50), 7.45; in assay [3] (average IC50) it was 7.22.

For `Cc1cc(C#N)cnc1C(=O)Nc1cnc(F)c([C@]2(C)C[C@@H](C(F)(F)F)OC(N)=N2)c1` [Example 67, N-(5-((4S,6S)-2-amino-4-methyl-6-(trifluoromethyl)-5,6-dihydro-4H-1,3-oxazin-4-yl)-6-fluoropyridin-3-yl)-5-cyano-3-methylpicolinamide], the figures for the pIC50 in assay [1] (average IC50), in assay [2] (setting [7]) and in assay [3] (average IC50) were under 3.40, 7.64 and 7.46, respectively.

With `C[C@@]1(c2cc(NC(=O)c3ncc(Cl)cc3Cl)cnc2F)C[C@@H](C(F)(F)F)OC(N)=N1` [Example 68, N-(5-((4S,6S)-2-amino-4-methyl-6-(trifluoromethyl)-5,6-dihydro-4H-1,3-oxazin-4-yl)-6-fluoropyridin-3-yl)-3,5-dichloropicolinamide], the pIC50 in assay [1] (average IC50) was under 3.40; in assay [2] (setting [7]) it was 6.95; in assay [3] (average IC50), 7.12.

The values above are taken from patent publication US9296734B2 (AMGEN INC., priority 2013, dated 2016).
